Results published in PMC7751060 (Antiviral therapy, 2012).
Where two headings read alike, the source gives them in different places.

Experiments:
MNV (MNV-1.CW3) [1] = experiment: MNV assay: MNV RNA levels by RT-qPCR in RAW 264.7 cells; assay type: cell-based, murine norovirus; settings: for EC90 / EC50: Norwalk virus; for EC50: RAW264.7, read-out: EC50, concentration required to reduce MNV RNA copy number by 50%; for SI (CC50/EC50), MNV / Antiviral activity against MNV (RNA levels), in words: RAW 264.7 cells; for Antiviral activity against MNV (RNA levels), in words: 0.1-100 μM (RBV 10-200 μM)
MNV (MNV-1.CW3) [2] = experiment: MNV assay: MNV infectivity by TCID50 in RAW 264.7 cells; assay type: cell-based, murine norovirus; settings: for Effect on MNV titre (infectivity), in words: RAW 264.7 cells, TCID50
Cytotoxicity assays [3] = assay type: cell-based; settings: mouse, RAW 264.7 cells
NV replicon (HG23 cells) = experiment: Norwalk virus replicon assay: NV RNA by RT-qPCR in HG23 cells; assay type: cell-based; settings: for Reduction in NV RNA: 10 μM; for Effect on NV RNA levels in HG23 cells, in words: 24-96 h post-treatment; for SI / therapeutic index (CC50/EC50), NV replicon: HG23 cells; for EC90: HG23, read-out: EC90, concentration required to reduce NV RNA copy number in HG23 cells by 90%
[4] = tested on: NPT II expression in HG23 cells; experiment: Western blot of NPT II expression in HG23 cells; assay type: cell-based, Norwalk virus; settings: for NPT II expression, % of untreated cells: 72 h incubation; for IC50: Norwalk virus, HG23, read-out: IC50, concentration required to reduce NPT II expression in HG23 cells by 50%
Cytotoxicity assays [5] = assay type: cell-based; settings: human, HG23 and Huh-7 cells
HCV = settings: cited from earlier work
[6] = tested on: bovine viral diarrhoea virus (BVDV); settings: cited from earlier work
[7] = cited from earlier work
HCV infections = settings: reportedly; Phase II, treatment of HCV; cited from earlier work
[8] = RAW264.7, read-out: EC90, concentration required to reduce MNV RNA copy number by 90%
[9] = Norwalk virus, HG23, read-out: EC50, concentration required to reduce NV RNA copy number in HG23 cells by 50%, RT-qPCR
[10] = read-out: EC50, concentration required to reduce NV RNA copy number in HG23 cells by 50%, RT-qPCR

Row | Structure (SMILES) | EC50 (MNV (MNV-1.CW3) [1]) | EC90 (MNV (MNV-1.CW3) [1]; [8]) | SI (CC50/EC50), MNV (MNV (MNV-1.CW3) [1]) | Antiviral activity against MNV (RNA levels), in words (MNV (MNV-1.CW3) [1]) | Effect on MNV titre (infectivity), in words (MNV (MNV-1.CW3) [2]) | CC50 at 5 days (Cytotoxicity assays [3]) | Effect on NV RNA levels in HG23 cells, in words (NV replicon (HG23 cells)) | SI / therapeutic index (CC50/EC50), NV replicon (NV replicon (HG23 cells)) | EC50 (NV replicon (HG23 cells); [9]) | EC90 (NV replicon (HG23 cells); Norwalk virus) | CC50 at 5 days (Cytotoxicity assays [5]) | also measured
1 | C[C@@]1(O)[C@H](O)[C@@H](CO)O[C@H]1n1ccc(N)nc1=O [2′-C-MeC, 4-amino-1-((2R, 3R, 4R, 5R)-3,4 dihydroxy-5-(hydroxymethyl)-3-methyltetrahydrofuran-2-yl) pyrimidin-2(1H)-one] | 6.9 ± 3.9 µM | 25.4 ± 3.6 µM | >14.6 | dose- and time-dependent reduction of MNV RNA levels | MNV titres were significantly reduced | > 100 µM | dose- and time-dependent reduction of NV RNA levels | > 77.5 | 1.3 µM | 8.9 ± 1.5 µM | > 100 µM | Reduction of MNV RNA levels (MNV (MNV-1.CW3) [1]; 0.1 μM, 72 h of exposure): 2 log10; Inhibition of MNV replication (RNA) (MNV (MNV-1.CW3) [1]; 100 μM, 24 h post-treatment): 3 log10; EC90 (MNV (MNV-1.CW3) [1]; RAW264.7, 24 h, read-out: EC90, MNV RNA (1 log10 reduction) (converted)): 25.6 ± 3.7 µM; inhibition at 100 µM (MNV (MNV-1.CW3) [2]; Norwalk virus, RAW264.7, 24 h, read-out: Inhibition of MNV replication (titre)): 99%; Reduction in NV RNA (NV replicon (HG23 cells); 72 h post-treatment): 1.2 log10; Reduction in NV RNA (NV replicon (HG23 cells); 96 h post-treatment): 3.6 log10; Reduction of NV RNA level (NV replicon (HG23 cells); 0.1 and 1 μM, after 96 h): 2.5 log10; EC50 (NV replicon (HG23 cells); [10]): 1.29 ± 0.8 µM; NPT II expression, % of untreated cells ([4]; 1 μM): 83%; NPT II expression, % of untreated cells ([4]; 10 μM): 13%; NPT II expression, % of untreated cells ([4]; 100 μM): 2%; IC50 [4]: 2.77 ± 1.4 µM; EC50 (HCV; read-out: EC50 against HCV, range given for HCV and BVDV together): 2 to 7 µM; EC50 ([6]; read-out: EC50 against BVDV, range given for HCV and BVDV together): 2 to 7 µM
2 | C[C@@]1(F)[C@H](O)[C@@H](CO)O[C@H]1n1ccc(N)nc1=O [2′-F-2′-C-MeC, 4-amino-1-((2R, 3R, 4R, 5R)-3-fluoro-4-hydroxy-5-(hydroxymethyl)-3-methyltetrahydrofuran-2-yl) pyrimidin-2(1H)-one] | 12.7 ± 2.9 µM | 91.2 ± 2.8 µM | >7.9 | dose-dependent antiviral activity only at 12 h post-treatment | reduced MNV titres, but only at 12 h post-treatment | > 100 µM | dose- and time-dependent reduction of NV RNA levels | > 31.4 | 3.2 ± 1.5 µM | 49 ± 2.9 µM | > 100 µM | IC50 (MNV (MNV-1.CW3) [2]; Norwalk virus, RAW264.7, 12 h, read-out: IC50, MNV infectivity): 33.9 ± 1.1 µM; Activity against HCV replication, in words (HCV): inhibits HCV; Activity against BVDV replication, in words [6]: not BVDV replication
3 | Nc1ccn([C@@H]2CS[C@H](CO)O2)c(=O)n1 [3TC, 4-amino-1-((2R, 5S)-2-(hydroxymethyl)-1,3-oxathiolan-5-yl) pyrimidin-2(1H)-one, reference compound] |  |  |  | Neither 3TC nor NHC had antiviral activity against MNV | No reduction of MNV titre was observed | > 100 µM | did not show antiviral activity |  |  |  | > 100 µM | 
4 | O=c1nc(NO)ccn1[C@@H]1O[C@H](CO)[C@@H](O)[C@H]1O [NHC, 1-((2R, 3R, 4S, 5R)-3,4-dihydroxy-5-(hydroxymethyl)tetrahydrofuran-2-yl)-4-(hydroxyamino) pyrimidin-2(1H)-one] | 8.8 ± 4.2 µM |  | >11.4 | Neither 3TC nor NHC had antiviral activity against MNV | No reduction of MNV titre was observed | > 100 µM | dose- and time-dependent reduction of NV RNA levels | > 68.0 | 1.5 µM | 16.6 ± 2.1 µM | > 100 µM | EC50 (NV replicon (HG23 cells); [10]): 1.47 ± 1.1 µM; NPT II expression, % of untreated cells ([4]; 1 μM): 91%; NPT II expression, % of untreated cells ([4]; 10 μM): 40%; NPT II expression, % of untreated cells ([4]; 100 μM): 16%; IC50 [4]: 6 ± 1.7 µM; Activity against HCV, in words (HCV): active against HCV, BVDV; Activity against BVDV, in words [6]: active against HCV, BVDV; Mutagenic properties [7]: has mutagenic properties
5 | CC(C)[C@H](N)C(=O)O[C@@H]1[C@@H](CO)O[C@@H](n2ccc(N)nc2=O)[C@]1(C)O [NM-283] |  |  |  |  |  |  |  |  |  |  |  | Clinical outcome in HCV trials, in words (HCV infections): found to have gastrointestinal problems
6 | NC(=O)c1ncn([C@@H]2O[C@H](CO)[C@@H](O)[C@H]2O)n1 [RBV, ribavirin, reference compound] | 63.5 ± 2.3 µM | 105 ± 1.5 µM | >1.6 | reduced MNV RNA levels in a dose-dependent manner at 12 h and 24 h post-treatment |  | > 100 µM |  | >5.0 | 40 ± 2.3 µM | 96.3 ± 2.5 µM | > 200 µM | 
7 | CC(C)C(=O)OC[C@H]1O[C@@H](n2ccc(N)nc2=O)[C@](C)(F)[C@@H]1OC(=O)C(C)C [RG-7128] |  |  |  |  |  |  |  |  |  |  |  | Clinical outcome in HCV trials, in words (HCV infections): demonstrated safety and efficacy against HCV
